Source: the supplement of paper PMC10307832

Tests used:
Test in all cases: relative viability (nuclei count vs DMSO), 5 days (fraction); higher = more cells survive
Selisistat + Pemetrexed = compound: C1CC(C2=C(C1)C3=C(N2)C=CC(=C3)Cl)C(=O)N [Selisistat] + Nc1nc2[nH]cc(CCc3ccc(C(=O)N[C@@H](CCC(=O)O)C(=O)O)cc3)c2c(=O)[nH]1 [Pemetrexed] (partner 0.2 µM)
Outline: (§1)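 A single step with final 0.05% Triton X-100, 1% formaldehyde and 1 ug/ml Hoechst fixed the cells and stained nuclei 5 days after treatment. Lung cancer cell lines in 1536-well plates had been treated by pin tool the day after seeding with one drug alone or a fixed anchor-drug dose plus five library-drug doses (not always all listed) in √10 steps, and nuclei were counted on 4× images. Relative viability is the ratio of nuclei in treated wells to nuclei in vehicle wells, taken as the median of duplicate plates.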

Selisistat + Dasatinib = compound: C1CC(C2=C(C1)C3=C(N2)C=CC(=C3)Cl)C(=O)N [Selisistat] + Cc1nc(Nc2ncc(C(=O)Nc3c(C)cccc3Cl)s2)cc(N2CCN(CCO)CC2)n1 [Dasatinib] (partner 0.075 µM)
Outline: as §1

Serdemetan + Lapatinib = compound: c1ccc2c(CCNc3ccc(Nc4ccncc4)cc3)c[nH]c2c1 [Serdemetan] + CS(=O)(=O)CCNCc1ccc(-c2ccc3ncnc(Nc4ccc(OCc5cccc(F)c5)c(Cl)c4)c3c2)o1 [Lapatinib] (partner 2 µM)
Outline: as §1

Selisistat + Linsitinib = compound: C1CC(C2=C(C1)C3=C(N2)C=CC(=C3)Cl)C(=O)N [Selisistat] + C[C@]1(O)C[C@@H](c2nc(-c3ccc4ccc(-c5ccccc5)nc4c3)c3c(N)nccn32)C1 [Linsitinib] (partner 1 µM)
Outline: as §1

Cell Line | relative viability (Selisistat + Pemetrexed; first compound 0.4 µM) | relative viability (Selisistat + Pemetrexed; first compound 1.265 µM) | relative viability (Selisistat + Pemetrexed; first compound 4 µM) | relative viability (Selisistat + Pemetrexed; first compound 12.65 µM) | relative viability (Selisistat + Pemetrexed; first compound 40 µM) | relative viability (Selisistat + Dasatinib; first compound 0.4 µM) | relative viability (Selisistat + Dasatinib; first compound 1.265 µM) | relative viability (Selisistat + Dasatinib; first compound 4 µM) | relative viability (Selisistat + Dasatinib; first compound 12.65 µM) | relative viability (Selisistat + Dasatinib; first compound 40 µM) | relative viability (Serdemetan + Lapatinib; first compound 0.04 µM) | relative viability (Serdemetan + Lapatinib; first compound 0.1265 µM) | relative viability (Serdemetan + Lapatinib; first compound 0.4 µM) | relative viability (Serdemetan + Lapatinib; first compound 1.265 µM) | relative viability (Serdemetan + Lapatinib; first compound 4 µM) | relative viability (Selisistat + Linsitinib; first compound 0.4 µM) | relative viability (Selisistat + Linsitinib; first compound 1.265 µM) | relative viability (Selisistat + Linsitinib; first compound 4 µM) | relative viability (Selisistat + Linsitinib; first compound 12.65 µM) | relative viability (Selisistat + Linsitinib; first compound 40 µM)
NCI-H2126 | 0.716 | 0.653 | 0.588 | 0.68 | 0.655 | 0.705 | 0.597 | 0.525 | 0.601 | 0.616 | 0.736 | 0.724 | 0.78 | 0.645 | 0.844 | 0.807 | 0.663 | 0.686 | 0.758 | 0.804
NCI-H3122 | 0.184 | 0.198 | 0.187 | 0.205 | 0.188 | 0.999 | 0.736 | 0.639 | 0.842 | 0.791 | 1 | 0.98 | 1 | – | 1.03 | 1.03 | 0.953 | 0.872 | 1.06 | 0.994
NCI-H1975 | 0.275 | 0.283 | 0.3 | 0.278 | 0.316 | 0.346 | 0.383 | 0.195 | 0.314 | 0.345 | 0.837 | 0.855 | 0.882 | 0.837 | 1.13 | 0.849 | 0.805 | 0.871 | 0.831 | 0.813
NCI-H1944 | 0.634 | 0.575 | 0.458 | 0.674 | 0.584 | 0.24 | 0.205 | – | 0.22 | 0.2 | 0.788 | 0.7 | 0.768 | – | 0.494 | 1.15 | 1.17 | – | 1.21 | 1.18
LU99A | 0.169 | 0.176 | 0.21 | 0.184 | 0.163 | 0.46 | 0.634 | 0.606 | 0.546 | 0.655 | 1.03 | 0.927 | 1.07 | 0.363 | 0.229 | 0.537 | 0.608 | 0.657 | 0.516 | 0.485
SW 1573 | 0.798 | 0.774 | – | 0.815 | 0.776 | 0.567 | 0.385 | 0.456 | 0.616 | 0.499 | 1.09 | 1.11 | 1.05 | 0.93 | 0.596 | 0.859 | 0.823 | 0.747 | 0.904 | 0.84
NCI-H2347 | 0.526 | 0.425 | 0.374 | 0.411 | 0.432 | 0.343 | 0.299 | 0.171 | 0.344 | 0.31 | 0.8 | 0.938 | 0.781 | 0.812 | 0.872 | 1.05 | 0.999 | 0.733 | 0.973 | 0.979
NCI-H2009 | 1.13 | 1.07 | 1.06 | 1.04 | 1.04 | 0.323 | 0.267 | 0.208 | 0.239 | 0.241 | 0.851 | 1.03 | 0.889 | 0.822 | 0.691 | 1.19 | 1.17 | 1.19 | 1.1 | 1.18
HCC-44 | 0.681 | 0.675 | 0.655 | 0.685 | 0.691 | – | – | – | – | – | 0.875 | 0.99 | 0.862 | 0.913 | 0.873 | 0.707 | 0.698 | 0.669 | 0.662 | 0.753
NCI-H1299 | – | – | – | – | – | – | – | – | – | – | 0.939 | 0.984 | 0.985 | 0.78 | 0.767 | 1.06 | 1.01 | 0.996 | 0.974 | 0.991
NCI-H727 | – | – | – | – | – | 0.468 | 0.419 | – | 0.454 | 0.498 | 0.768 | 0.919 | 0.758 | 0.797 | 0.416 | 0.297 | 0.292 | – | – | 0.395
LCLC-103H | 0.42 | 0.473 | 0.469 | 0.509 | 0.529 | 0.527 | 0.475 | 0.456 | 0.507 | 0.548 | – | – | – | – | – | 1.13 | 1.15 | 1.07 | 1.03 | 1.01
ABC-1 | – | – | – | – | – | 0.553 | 0.469 | 0.589 | 0.588 | 0.509 | 1.08 | 1.07 | 1.25 | – | 0.717 | 0.649 | 0.652 | 0.788 | 0.726 | 0.721
NCI-H1650 | 0.359 | 0.348 | 0.354 | 0.397 | 0.326 | 0.298 | 0.297 | 0.295 | 0.286 | 0.313 | 0.718 | 0.768 | 0.599 | 0.846 | 0.558 | – | – | – | – | –
ChaGo-K-1 | 0.237 | 0.247 | 0.257 | 0.36 | 0.231 | 0.562 | 0.551 | 0.563 | 0.539 | 0.592 | – | – | – | – | – | – | – | – | – | –
NCI-H1648 | 0.562 | 0.584 | – | 0.599 | 0.743 | – | – | – | – | – | – | – | – | – | – | – | – | – | – | –
A549 | – | – | – | – | – | – | – | – | – | – | 1.06 | 0.916 | 0.901 | 0.953 | 0.455 | 0.664 | 0.587 | 0.484 | 0.649 | 0.622
NCI-H522 | 1.03 | 0.646 | 0.781 | 0.94 | 1.1 | 0.736 | 0.644 | 0.784 | 0.803 | 0.759 | – | – | – | – | – | – | – | – | – | –
NCI-H2170 | 0.249 | 0.264 | 0.25 | 0.244 | 0.242 | 0.468 | 0.47 | 0.521 | 0.563 | 0.63 | 0.322 | 0.298 | 0.285 | 0.268 | 0.273 | – | – | – | – | –
NCI-H1623 | – | – | – | – | – | 0.518 | 0.587 | 0.41 | 0.551 | 0.57 | – | – | – | – | – | – | – | – | – | –
SW 900 | 0.468 | 0.464 | 0.461 | 0.517 | 0.46 | 0.664 | 0.409 | 0.641 | 0.496 | 0.791 | – | – | – | – | – | – | – | – | – | –
IA-LM | – | – | – | – | – | – | – | – | – | – | 0.723 | 1 | 0.655 | 0.584 | 0.322 | 0.632 | 0.581 | 0.436 | 0.4 | 0.694
EBC-1 | – | – | – | – | – | – | – | – | – | – | 0.23 | 0.238 | 0.218 | 0.21 | 0.203 | 0.92 | 0.899 | 0.892 | 0.8 | 0.844
